Data reported in ChEMBL document CHEMBL1156502, “Stabilized immune modulatory RNA compounds as agonists of Toll-like receptors 7 and 8” (Proc Natl Acad Sci U S A, 2007).
The source made the active and inactive calls. No cut-off for these calls is given here.

Columns and labels:
[1] = Stability in 1% human serum assessed as full length product after 10 mins; assay type: ADME, cell-free; settings: read-out: Stability
[2] = target: T1, Toll-like receptor 8 (Homo sapiens) (UniProt Q9NR97); assay: Activation of human TLR8 expressed in HEK293 cells assessed as increase in NF-kappaB activation at 100 ug/ml by SEAP assay; assay type: cell-based
T1 sequence (whole entry): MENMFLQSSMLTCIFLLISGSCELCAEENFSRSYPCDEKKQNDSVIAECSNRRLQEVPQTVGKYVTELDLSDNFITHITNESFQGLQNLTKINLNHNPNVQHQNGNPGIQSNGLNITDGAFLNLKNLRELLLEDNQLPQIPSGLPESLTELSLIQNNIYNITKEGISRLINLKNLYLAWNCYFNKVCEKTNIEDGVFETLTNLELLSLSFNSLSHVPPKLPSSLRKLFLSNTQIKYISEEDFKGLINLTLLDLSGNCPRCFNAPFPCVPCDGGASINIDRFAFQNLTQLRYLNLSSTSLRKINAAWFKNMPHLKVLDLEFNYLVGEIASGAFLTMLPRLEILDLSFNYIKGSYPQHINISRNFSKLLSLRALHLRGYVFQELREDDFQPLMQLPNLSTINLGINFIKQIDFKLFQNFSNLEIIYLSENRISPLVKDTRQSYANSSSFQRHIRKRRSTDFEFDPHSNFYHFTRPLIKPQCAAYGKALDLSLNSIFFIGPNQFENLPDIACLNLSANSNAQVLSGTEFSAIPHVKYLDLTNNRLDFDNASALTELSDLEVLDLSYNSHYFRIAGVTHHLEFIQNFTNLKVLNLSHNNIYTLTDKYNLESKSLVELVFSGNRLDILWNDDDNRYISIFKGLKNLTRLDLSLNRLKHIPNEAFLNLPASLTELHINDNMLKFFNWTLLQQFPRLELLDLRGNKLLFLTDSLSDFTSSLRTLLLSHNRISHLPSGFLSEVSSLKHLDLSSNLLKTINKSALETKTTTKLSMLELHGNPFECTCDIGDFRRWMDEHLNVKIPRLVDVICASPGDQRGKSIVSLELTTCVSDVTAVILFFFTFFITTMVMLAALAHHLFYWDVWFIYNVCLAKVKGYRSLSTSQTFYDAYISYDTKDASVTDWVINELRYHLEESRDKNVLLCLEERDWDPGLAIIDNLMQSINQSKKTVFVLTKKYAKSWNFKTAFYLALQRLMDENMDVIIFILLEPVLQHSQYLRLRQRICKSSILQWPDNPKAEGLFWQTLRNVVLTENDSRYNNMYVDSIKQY

[3] = target: T2, Toll-like receptor 7 (Homo sapiens) (UniProt Q9NYK1); assay: Activation of human TLR7 expressed in HEK293 cells assessed as increase in NF-kappaB activation at 100 ug/ml by SEAP assay; assay type: cell-based
T2 sequence (whole entry): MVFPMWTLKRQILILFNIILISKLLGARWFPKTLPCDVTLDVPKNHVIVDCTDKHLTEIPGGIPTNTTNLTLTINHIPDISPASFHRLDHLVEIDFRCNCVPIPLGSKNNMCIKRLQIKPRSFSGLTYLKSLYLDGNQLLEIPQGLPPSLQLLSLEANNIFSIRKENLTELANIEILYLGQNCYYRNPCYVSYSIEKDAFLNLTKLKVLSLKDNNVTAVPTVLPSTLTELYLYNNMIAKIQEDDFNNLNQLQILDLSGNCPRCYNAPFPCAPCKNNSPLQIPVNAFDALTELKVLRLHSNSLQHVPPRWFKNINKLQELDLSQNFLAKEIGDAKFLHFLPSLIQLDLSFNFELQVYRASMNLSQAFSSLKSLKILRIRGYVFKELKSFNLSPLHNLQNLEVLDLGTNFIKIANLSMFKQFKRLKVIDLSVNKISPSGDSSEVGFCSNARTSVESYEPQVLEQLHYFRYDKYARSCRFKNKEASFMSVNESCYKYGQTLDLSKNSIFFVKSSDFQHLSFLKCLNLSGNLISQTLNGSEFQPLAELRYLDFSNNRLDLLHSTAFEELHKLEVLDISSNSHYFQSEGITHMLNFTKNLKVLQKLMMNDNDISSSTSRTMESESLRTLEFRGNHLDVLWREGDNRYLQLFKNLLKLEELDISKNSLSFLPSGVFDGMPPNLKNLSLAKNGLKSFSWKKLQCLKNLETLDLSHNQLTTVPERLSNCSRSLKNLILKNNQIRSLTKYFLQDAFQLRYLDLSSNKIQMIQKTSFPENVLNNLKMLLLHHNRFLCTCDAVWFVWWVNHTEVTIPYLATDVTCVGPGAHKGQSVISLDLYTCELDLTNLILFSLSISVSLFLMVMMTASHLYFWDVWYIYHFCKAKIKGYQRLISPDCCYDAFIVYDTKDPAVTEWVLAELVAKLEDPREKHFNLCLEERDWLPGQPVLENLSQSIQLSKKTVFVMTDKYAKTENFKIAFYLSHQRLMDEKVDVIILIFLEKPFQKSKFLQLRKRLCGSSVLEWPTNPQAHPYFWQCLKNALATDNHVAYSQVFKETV

Row | SMILES | remaining at 10 min [1] [%] | Activity [2] | Activity [3]
1 | Nc1nc2c(ncn2[C@@H]2O[C@H](COP(O)(=S)O[C@H]3[C@@H](O)[C@H](n4ccc(=O)[nH]c4=O)O[C@@H]3COP(O)(=S)O[C@H]3[C@@H](O)[C@H](n4ccc(=O)[nH]c4=O)O[C@@H]3COP(O)(=S)O[C@H]3[C@@H](O)[C@H](n4ccc(=O)[nH]c4=O)O[C@@H]3COP(O)(=S)O[C@H]3[C@@H](O)[C@H](n4cnc5c(=O)[nH]c(N)nc54)O[C@@H]3COP(O)(=S)O[C@H]3[C@@H](O)[C@H](n4ccc(=O)[nH]c4=O)O[C@@H]3COP(O)(=S)O[C@H]3[C@@H](O)[C@H](n4ccc(=O)[nH]c4=O)O[C@@H]3COP(O)(=S)O[C@H]3[C@@H](O)[C@H](n4cnc5c(=O)[nH]c(N)nc54)O[C@@H]3COP(O)(=S)O[C@H]3[C@@H](O)[C@H](n4cnc5c(=O)[nH]c(N)nc54)O[C@@H]3COP(O)(=S)O[C@H]3[C@@H](O)[C@H](n4ccc(=O)[nH]c4=O)O[C@@H]3COP(O)(=S)O[C@H]3[C@@H](O)[C@H](n4ccc(=O)[nH]c4=O)O[C@@H]3CO)[C@@H](OP(O)(=S)OCC(O)COP(O)(=S)O[C@H]3[C@@H](O)[C@H](n4cnc5c(=O)[nH]c(N)nc54)O[C@@H]3COP(O)(=S)O[C@H]3[C@@H](O)[C@H](n4ccc(=O)[nH]c4=O)O[C@@H]3COP(O)(=S)O[C@H]3[C@@H](O)[C@H](n4ccc(=O)[nH]c4=O)O[C@@H]3COP(O)(=S)O[C@H]3[C@@H](O)[C@H](n4ccc(=O)[nH]c4=O)O[C@@H]3COP(O)(=S)O[C@H]3[C@@H](O)[C@H](n4cnc5c(=O)[nH]c(N)nc54)O[C@@H]3COP(O)(=S)O[C@H]3[C@@H](O)[C@H](n4ccc(=O)[nH]c4=O)O[C@@H]3COP(O)(=S)O[C@H]3[C@@H](O)[C@H](n4ccc(=O)[nH]c4=O)O[C@@H]3COP(O)(=S)O[C@H]3[C@@H](O)[C@H](n4cnc5c(=O)[nH]c(N)nc54)O[C@@H]3COP(O)(=S)O[C@H]3[C@@H](O)[C@H](n4cnc5c(=O)[nH]c(N)nc54)O[C@@H]3COP(O)(=S)O[C@H]3[C@@H](O)[C@H](n4ccc(=O)[nH]c4=O)O[C@@H]3COP(O)(=S)O[C@H]3[C@@H](O)[C@H](n4ccc(=O)[nH]c4=O)O[C@@H]3CO)[C@H]2O)c(=O)[nH]1 (some centres undefined) | 94 | Active | inactive
2 | Nc1ccn([C@@H]2O[C@H](COP(O)(=S)O[C@H]3[C@@H](O)[C@H](n4ccc(N)nc4=O)O[C@@H]3COP(O)(=S)O[C@H]3[C@@H](O)[C@H](n4cnc5c(=O)[nH]c(N)nc54)O[C@@H]3COP(O)(=S)O[C@H]3[C@@H](O)[C@H](n4ccc(=O)[nH]c4=O)O[C@@H]3COP(O)(=S)O[C@H]3[C@@H](O)[C@H](n4ccc(N)nc4=O)O[C@@H]3COP(O)(=S)O[C@H]3[C@@H](O)[C@H](n4cnc5c(=O)[nH]c(N)nc54)O[C@@H]3COP(O)(=S)O[C@H]3[C@@H](O)[C@H](n4ccc(=O)[nH]c4=O)O[C@@H]3CO)[C@@H](OP(O)(=S)OC[C@H]3O[C@@H](n4ccc(=O)[nH]c4=O)[C@H](O)[C@@H]3OP(O)(=S)OC[C@H]3O[C@@H](n4ccc(=O)[nH]c4=O)[C@H](O)[C@@H]3OP(O)(=S)OC[C@H]3O[C@@H](n4ccc(=O)[nH]c4=O)[C@H](O)[C@@H]3OP(O)(=S)OC[C@H]3O[C@@H](n4cnc5c(=O)[nH]c(N)nc54)[C@H](O)[C@@H]3OP(O)(=S)OCC(O)COP(O)(=S)O[C@H]3[C@@H](O)[C@H](n4cnc5c(=O)[nH]c(N)nc54)O[C@@H]3COP(O)(=S)O[C@H]3[C@@H](O)[C@H](n4ccc(=O)[nH]c4=O)O[C@@H]3COP(O)(=S)O[C@H]3[C@@H](O)[C@H](n4ccc(=O)[nH]c4=O)O[C@@H]3COP(O)(=S)O[C@H]3[C@@H](O)[C@H](n4ccc(=O)[nH]c4=O)O[C@@H]3COP(O)(=S)O[C@H]3[C@@H](O)[C@H](n4ccc(N)nc4=O)O[C@@H]3COP(O)(=S)O[C@H]3[C@@H](O)[C@H](n4ccc(N)nc4=O)O[C@@H]3COP(O)(=S)O[C@H]3[C@@H](O)[C@H](n4cnc5c(=O)[nH]c(N)nc54)O[C@@H]3COP(O)(=S)O[C@H]3[C@@H](O)[C@H](n4ccc(=O)[nH]c4=O)O[C@@H]3COP(O)(=S)O[C@H]3[C@@H](O)[C@H](n4ccc(N)nc4=O)O[C@@H]3COP(O)(=S)O[C@H]3[C@@H](O)[C@H](n4cnc5c(=O)[nH]c(N)nc54)O[C@@H]3COP(O)(=S)O[C@H]3[C@@H](O)[C@H](n4ccc(=O)[nH]c4=O)O[C@@H]3CO)[C@H]2O)c(=O)n1 (some centres undefined) | 66 | Active | inactive
3 | Nc1ccn([C@@H]2O[C@H](COP(O)(=S)O[C@H]3[C@@H](O)[C@H](n4cnc5c(=O)[nH]c(N)nc54)O[C@@H]3COP(O)(=S)O[C@H]3[C@@H](O)[C@H](n4ccc(=O)[nH]c4=O)O[C@@H]3COCCCCCO)[C@@H](OP(O)(=S)OC[C@H]3O[C@@H](n4ccc(=O)[nH]c4=O)[C@H](O)[C@@H]3OP(O)(=S)OC[C@H]3O[C@@H](n4cnc5c(=O)[nH]c(N)nc54)[C@H](O)[C@@H]3OP(O)(=S)OC[C@H]3O[C@@H](n4ccc(N)nc4=O)[C@H](O)[C@@H]3OP(O)(=S)OC[C@H]3O[C@@H](n4ccc(=O)[nH]c4=O)[C@H](O)[C@@H]3OP(O)(=S)OC[C@H]3O[C@@H](n4ccc(=O)[nH]c4=O)[C@H](O)[C@@H]3OP(O)(=S)OC[C@H]3O[C@@H](n4cnc5c(=O)[nH]c(N)nc54)[C@H](O)[C@@H]3OP(O)(=S)OC[C@H]3O[C@@H](n4ccc(=O)[nH]c4=O)[C@H](O)[C@@H]3OP(O)(=S)OC[C@H]3O[C@@H](n4cnc5c(=O)[nH]c(N)nc54)[C@H](O)[C@@H]3OP(O)(=S)OCC(O)COP(O)(=S)O[C@H]3[C@@H](O)[C@H](n4cnc5c(=O)[nH]c(N)nc54)O[C@@H]3COP(O)(=S)O[C@H]3[C@@H](O)[C@H](n4ccc(=O)[nH]c4=O)O[C@@H]3COP(O)(=S)O[C@H]3[C@@H](O)[C@H](n4cnc5c(=O)[nH]c(N)nc54)O[C@@H]3COP(O)(=S)O[C@H]3[C@@H](O)[C@H](n4ccc(=O)[nH]c4=O)O[C@@H]3COP(O)(=S)O[C@H]3[C@@H](O)[C@H](n4ccc(=O)[nH]c4=O)O[C@@H]3COP(O)(=S)O[C@H]3[C@@H](O)[C@H](n4ccc(N)nc4=O)O[C@@H]3COP(O)(=S)O[C@H]3[C@@H](O)[C@H](n4cnc5c(=O)[nH]c(N)nc54)O[C@@H]3COP(O)(=S)O[C@H]3[C@@H](O)[C@H](n4ccc(=O)[nH]c4=O)O[C@@H]3COP(O)(=S)O[C@H]3[C@@H](O)[C@H](n4ccc(N)nc4=O)O[C@@H]3COP(O)(=S)O[C@H]3[C@@H](O)[C@H](n4cnc5c(=O)[nH]c(N)nc54)O[C@@H]3COP(O)(=S)O[C@H]3[C@@H](O)[C@H](n4ccc(=O)[nH]c4=O)O[C@@H]3COCCCCCO)[C@H]2O)c(=O)n1 (some centres undefined) | 82 | Active | inactive
